Measurements: publication PMC13539321 (Journal of Advanced Research, 2025)

Assays:
[1] = biological target: Mushroom TYR (EC 1.14.18.1) (Agaricus bisporus, UniProt C7FF04); assay: biochemical; conditions: IC50 value ± SD
mushroom TYR = mushroom TYR (Agaricus bisporus, UniProt C7FF04); assay: biochemical; type: binding
B16F10 cells [2] = assay: Cytotoxicity assay; type: cell-based; conditions: 72 h
A375 cells [3] = assay: Cytotoxicity assay; type: cell-based; conditions: 72 h
B16F10 cells [4] = assay: Intracellular melanogenesis inhibition assay, B16F10; type: cell-based; conditions: melanotan II 100 nM, 72 h; for order of inhibitory effectiveness (macroscopic colour): 100 μM; for inhibitory effect on melanin synthesis: various concentrations
A375 cells [5] = assay: Intracellular melanogenesis inhibition assay, A375; type: cell-based; conditions: melanotan II 100 nM, 72 h, all tested concentrations
3D melanin skin model = assay: 3D human skin model assay; type: cell-based; conditions: 100 µM, six doses, UVB 50 mJ/cm^2 for seven days, n = 6
Plasma stability study = type: in vitro ADME; conditions: human
[6] = human, microsomes
in vitro = conditions: human, microsomes
[7] = L-dopa, substrate L-dopa (diphenolase), n = 3, screening of de novo generated compounds (Table 1)
[8] = L-tyrosine, substrate L-tyrosine (monophenolase), n = 3, screening of de novo generated compounds (Table 1)

Mushroom TYR (EC 1.14.18.1), sequence (C7FF04 1-392 limits assumed): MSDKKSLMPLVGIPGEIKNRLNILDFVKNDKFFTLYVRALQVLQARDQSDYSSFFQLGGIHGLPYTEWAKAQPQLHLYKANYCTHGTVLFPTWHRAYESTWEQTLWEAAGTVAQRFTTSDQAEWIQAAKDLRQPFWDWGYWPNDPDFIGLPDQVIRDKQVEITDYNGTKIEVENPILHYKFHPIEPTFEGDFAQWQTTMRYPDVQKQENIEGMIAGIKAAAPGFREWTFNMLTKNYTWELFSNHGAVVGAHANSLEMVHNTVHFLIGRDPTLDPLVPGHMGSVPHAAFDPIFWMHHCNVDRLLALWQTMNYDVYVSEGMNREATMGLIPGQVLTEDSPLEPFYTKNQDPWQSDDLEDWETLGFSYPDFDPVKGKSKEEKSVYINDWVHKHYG
mushroom TYR, sequence (C7FF04 1-392 limits assumed): as above

Q: Which IC50 ([1]; L-dopa) does the source give for `O=C(CCc1cccc(O)c1)N1CCN(Cc2ccc(F)cc2)CC1` [Compound V, 1-(4-(4-fluorobenzyl)piperazin-1-yl)-3-(3-hydroxyphenyl)propan-1-one] here?
A: 41.8 ± 3 µM

Q: What about the IC50 [1, 7] of the same molecule?
A: 18.5 ± 2.4 µM

Q: What about the IC50 ([1]; L-tyrosine) of the same molecule?
A: 11.9 ± 0.5 µM

Q: And the IC50 [1, 8]?
A: 9.6 ± 1.1 µM

Q: What about the Kd (mushroom TYR) of the same molecule?
A: 24.2 ± 20.3 µM

Q: What about the cytotoxicity (B16F10 cells [2]; 200 μM) of the same molecule?
A: no cytotoxicity

Q: And the cytotoxicity (A375 cells [3]; 100 μM)?
A: no cytotoxicity

Q: What about the cytotoxicity (A375 cells [3]; 200 μM) of the same molecule?
A: weak cytotoxicity

Q: And the “order of inhibitory effectiveness (macroscopic colour)” value (“order of inhibitory effectiveness” for short) (B16F10 cells [4])?
A: compound V-24 > β-arbutin > kojic acid ≈ compound V

Q: And the “inhibitory effect on melanin synthesis” value (B16F10 cells [4])?
A: comparable to that of kojic acid

Q: With `Cc1ccc(CN2CCN(C(=O)/C=C/c3ccc(O)cc3O)CC2)cc1` [Compound V-24, (E)-3-(2,4-dihydroxyphenyl)-1-(4-(4-methylbenzyl)piperazin-1-yl)prop-2-en-1-one] as the molecule, how does the IC50 ([1]; L-dopa) read?
A: 0.018 ± 0.0007 µM

Q: What about the IC50 ([1]; L-tyrosine) of the same molecule?
A: 0.02 ± 0.001 µM

Q: What about the Kd (mushroom TYR) of the same molecule?
A: 13.8 ± 4.2 µM

Q: And the cytotoxicity (B16F10 cells [2]; 100 μM)?
A: no cytotoxicity

Q: What about the cytotoxicity (A375 cells [3]; 100 μM) of the same molecule?
A: no cytotoxicity

Q: And the cytotoxicity (A375 cells [3]; 200 μM)?
A: weak cytotoxicity

Q: And the “order of inhibitory effectiveness” value (B16F10 cells [4])?
A: compound V-24 > β-arbutin > kojic acid ≈ compound V

Q: What about the “inhibitory effect on melanin synthesis” value (B16F10 cells [4]) of the same molecule?
A: akin to that of β-arbutin

Q: And the “inhibitory effect on melanin synthesis” value (A375 cells [5])?
A: most pronounced inhibitory effect

Q: What about the L value (3D melanin skin model) of the same molecule?
A: 83.38 ± 0.40

Q: What about the half-life at 1 µM (Plasma stability study) of the same molecule?
A: 8.74 h

Q: And the remaining at 2 h, 1 µM (Plasma stability study)?
A: 89.1%

Q: And the Eh [6]?
A: 69.00%

Q: What about the half-life at 1 µM (in vitro) of the same molecule?
A: 0.58 h

Q: And the remaining at 0.75 h, 1 µM (in vitro)?
A: 42%

Q: Which IC50 [1, 7] does the source give for `O=C(C=Cc1ccccc1)NCCc1cccc(O)c1` [XI, N-(3-hydroxyphenethyl)cinnamamide] here?
A: > 800 µM

Q: What about the IC50 [1, 8] of the same molecule?
A: 622 ± 82.8 µM

Q: For `O=C(/C=C/c1ccccc1)N1CCN(c2cccc(O)c2)CC1` [XII, (E)-1-(4-(3-hydroxyphenyl)piperazin-1-yl)-3-phenylprop-2-en-1-one], which IC50 [1, 7] is on record?
A: 199 ± 22.7 µM

Q: And the IC50 [1, 8]?
A: 35.9 ± 1.2 µM

Q: With `Cc1nc2ccc(C(=O)NCc3ccc(O)cc3)cc2[nH]1` [XIII, N-(4-hydroxybenzyl)-2-methyl-1H-benzo[d]imidazole-6-carboxamide] as the molecule, how does the IC50 [1, 7] read?
A: > 800 µM

Q: And the IC50 [1, 8]?
A: 99.7 ± 15.3 µM

Q: Which results are given for `Cc1nc2cc(C(=O)N3CCCN(Cc4ccccc4)CC3)ccc2[nH]1` [XIV, (4-benzyl-1,4-diazepan-1-yl)(2-methyl-1H-benzo[d]imidazol-5-yl)methanone]?
A: IC50 [1, 7]: > 800 µM; IC50 [1, 8]: 449 ± 36.1 µM

Q: With `O=C(c1cccc(OCc2ccccc2)c1)N1CCN(c2ccc(O)cc2)CC1` [XV, (3-(benzyloxy)phenyl)(4-(4-hydroxyphenyl)piperazin-1-yl)methanone] as the molecule, how does the IC50 [1, 7] read?
A: > 800 µM

Q: What about the IC50 [1, 8] of the same molecule?
A: > 800 µM

Q: Which results are given for `O=C(Oc1ccc(N2CCNCC2)cc1)c1cnc2ccccc2c1` [XVI, 4-(piperazin-1-yl)phenyl quinoline-3-carboxylate]?
A: IC50 [1, 7]: 138 ± 5.1 µM; IC50 [1, 8]: 16 ± 1.6 µM

Q: For `O=C(Oc1ccc(N2CCNCC2)cc1)c1cc(O)nc2ccccc12` [XVII, 4-(piperazin-1-yl)phenyl 2-hydroxyquinoline-4-carboxylate], which IC50 [1, 7] is on record?
A: 303 ± 47.6 µM

Q: And the IC50 [1, 8]?
A: 164 ± 19.8 µM

Q: For `O=c1cc(CO)occ1O` [kojic acid, reference compound], which cytotoxicity (B16F10 cells [2]; 200 μM) is on record?
A: no cytotoxicity

Q: And the cytotoxicity (A375 cells [3]; 200 μM)?
A: no cytotoxicity

Q: What about the “order of inhibitory effectiveness” value (B16F10 cells [4]) of the same molecule?
A: compound V-24 > β-arbutin > kojic acid ≈ compound V

Q: What about the L value (3D melanin skin model) of the same molecule?
A: 70.98 ± 0.68
